Values of other authors in US20240217930A1 (priority 2021, published 2024).

Experiments:
[1] = trials performed in cats; cited from earlier work
[2] = system: live virus; conditions: cited from earlier work
[3] = system: ten further coronavirus strains; conditions: read-out: Ki against ten further coronavirus strains; cited from earlier work

Compound | side effects in cats [1] | activity in cell-based live virus assays [2] | Ki [3]
CC(C)C[C@H](NC(=O)OCc1ccccc1)C(=O)N[C@@H](C[C@@H]1CCNC1=O)C(O)S(=O)(=O)[O-].[Na+] (stereo partly drawn) [GC376] | has shown side effects |  | 
PF-00835231 |  | ~1 µM | 0.03 to 4 nM
